Laboratory results reported in patent US4180669A, “2-(N-phenethyl-4-piperidino)-5-pentyl resorcinol” (Abbott Laboratories, priority 1978, dated 1979).
Counter-ions that a name gives are not always drawn. Like-named read-outs stand apart in the source and are kept apart here.

Legend:
pylorous ligated rats = assay: Antisecretory activity in the pylorous ligated rat model; assay type: in vivo, male Sprague-Dawley rats; settings: for inhibition in vivo at 6.3 mg/kg / inhibition in vivo at 12.5 mg/kg / inhibition in vivo at 25 mg/kg / inhibition in vivo at 50 mg/kg / inhibition in vivo at 100 mg/kg: Rattus norvegicus, 4 h; for inhibition in vivo at 6.3 mg/kg: oral dose 6.3 mg/kg
Procedure: To determine the antisecretory activity of the present compounds, the compounds were tested for such activity in pylorous ligated rats. In this test, male Sprague-Dawley rats weighing 170-190 g. were fasted for 24 hours. Water was allowed ad libitum. All groups were comprised of six rats. […] Water was withheld after drug administration. Ligation of the pyrloric sphincter was performed under ether anesthesia, and four hours after ligation the animals were sacrificed with CO2. The stomach was dissected out and the contents were expelled into a graduated centrifuge tube. The samples were centrifuged and the volume, less debris, was measured. Sample aliquots were titrated with 0.05 N NaOH to determine acid concentration. Pepsin activity was determined on an auto analyzer using hemoglobin as the substrate by the method of Anson. Group means for volume, acid and pepsin concentrations, and pepsin outputs were compared for statistically significant differences from control means by Student's t-test.

[1] = tested on: pentagastrin stimulated fistula dog; assay: Antisecretory activity in the pentagastrin stimulated fistula dog; assay type: in vivo, female beagle dogs; settings: pentagastrin 10 μg/kg s.c., 2 hours
Procedure: In addition to the test described in Example XXXVI, some of the present compounds were tested in dogs.
In this test, female beagle dogs weighing 5.5-7.5 kg. were surgically provided with gastric fistulas at the ventral wall of the stomach near the greater curvature and just proximal to the antrum. The animals were allowed to recover for three to four weeks before handling and training were begun, and experiments were started six to eight weeks after surgery. The individually housed dogs were fasted for 20-24 hours before use. Water was allowed ad lib. Treatment selection was determined by a randomized schedule which included control groups given vehicle (0.5% Methocel® solution) only. During the test period each dog was secured in a standing position with one collar around the neck and another around the lower abdomen. Before drug administration, the cannula plug of the gastric fistula was removed and the pH of the gastric juice was checked. Animals with acidic gastric juice (pH 4.0 or less) were replaced with alternate dogs. Then the drug was administered intragastrically […] through a special gastric cannula instillation plug, 30 minutes prior to subcutaneous administration of a gastric stimulant (pentagastrin, 10 μg/kg).
For each dog, collection of gastric juice was begun immediately after administration of the gastric stimulant and continued for two hours. The volumes of collected gastric juices were measured. The acid concentration and pepsin activity were determined for all samples by automated procedures. For the dog data, as recorded in Table 2, below, group means for volume (ml), acid concentration (acidity, mEq/l), pepsin concentration (mg/ml), acid output (mEq/2 hr), and pepsin output (mg/2 hr) were compared with the respective control means using Student's t-test. The results were also expressed as percent inhibition of the respective individual mean control values.
Group means for volume, acid and pepsin concentrations, acid and pepsin outputs were compared for statistically significant differences from control means by Student's t-test.

[2] = oral dose 50 mg/kg, negative sign means stimulated
[3] = oral dose 12.5 mg/kg, read-out: Percent inhibition of acid output
[4] = oral dose 12.5 mg/kg, read-out: Percent inhibition of acidity
[5] = oral dose 12.5 mg/kg, read-out: Percent inhibition of volume
[6] = oral dose 25 mg/kg, read-out: Percent inhibition of acid output
[7] = oral dose 25 mg/kg, read-out: Percent inhibition of acidity
[8] = oral dose 25 mg/kg, read-out: Percent inhibition of volume
[9] = oral dose 50 mg/kg, negative sign means stimulated, read-out: Percent inhibition of pepsin
[10] = oral dose 50 mg/kg, negative sign means stimulated, read-out: Percent inhibition of pepsin output
[11] = oral dose 50 mg/kg, read-out: Percent inhibition of acid output
[12] = oral dose 50 mg/kg, read-out: Percent inhibition of acidity
[13] = oral dose 50 mg/kg, read-out: Percent inhibition of volume
[14] = oral dose 100 mg/kg, read-out: Percent inhibition of acid output
[15] = oral dose 100 mg/kg, read-out: Percent inhibition of acidity
[16] = oral dose 100 mg/kg, read-out: Percent inhibition of volume

Compound: 2-(1,2,3,4-Tetrahydro-4-pyridyl)-3-methoxy-5-(1,2-dimethylheptyl)phenol hydrochloride [XXVIII]
- Percent inhibition of acid output (pylorous ligated rats; oral dose 12.5 mg/kg): 7.5%
- Percent inhibition of acidity (pylorous ligated rats; oral dose 12.5 mg/kg): 19.2%
- Percent inhibition of pepsin output (pylorous ligated rats; oral dose 12.5 mg/kg): 10.9%
- Percent inhibition of volume (pylorous ligated rats; oral dose 12.5 mg/kg): -14.5%
- Percent inhibition of pepsin (pylorous ligated rats; oral dose 12.5 mg/kg, negative sign means stimulated): 22.5%
- Percent inhibition of acid output (pylorous ligated rats; oral dose 25 mg/kg): 13.1%
- Percent inhibition of acidity (pylorous ligated rats; oral dose 25 mg/kg): 27.2%
- Percent inhibition of pepsin output (pylorous ligated rats; oral dose 25 mg/kg): 0.8%
- Percent inhibition of volume (pylorous ligated rats; oral dose 25 mg/kg): -19.5%
- Percent inhibition of pepsin (pylorous ligated rats; oral dose 25 mg/kg, negative sign means stimulated): 17.2%
- Percent inhibition of acid output (pylorous ligated rats; oral dose 50 mg/kg): 68.2%
- Percent inhibition of acidity (pylorous ligated rats; oral dose 50 mg/kg): 67.1%
- Percent inhibition of volume (pylorous ligated rats; oral dose 50 mg/kg): 3.7%
- Percent inhibition of pepsin (pylorous ligated rats; [2]): 7.5%
- Percent inhibition of pepsin output (pylorous ligated rats; [2]): 9.1%
- Percent inhibition of acid output (pylorous ligated rats; oral dose 100 mg/kg): 64.4%
- Percent inhibition of acidity (pylorous ligated rats; oral dose 100 mg/kg): 71.7%
- Percent inhibition of pepsin output (pylorous ligated rats; oral dose 100 mg/kg): 1.8%
- Percent inhibition of volume (pylorous ligated rats; oral dose 100 mg/kg): -23.1%
- Percent inhibition of pepsin (pylorous ligated rats; oral dose 100 mg/kg, negative sign means stimulated): 20.9%
- % Inhibition of acid output ([1]; dose 10 mg/kg): 16.5%
- % Inhibition of acidity ([1]; dose 10 mg/kg): 7.7%
- % Inhibition of pepsin ([1]; dose 10 mg/kg): 29.7%
- % Inhibition of pepsin output ([1]; dose 10 mg/kg): 35.1%
- % Inhibition of volume ([1]; dose 10 mg/kg): 9.2%
- % Inhibition of acid output ([1]; dose 20 mg/kg): 17.9%
- % Inhibition of acidity ([1]; dose 20 mg/kg): 26.2%
- % Inhibition of pepsin ([1]; dose 20 mg/kg): 48.0%
- % Inhibition of pepsin output ([1]; dose 20 mg/kg): 41.2%
- % Inhibition of volume ([1]; dose 20 mg/kg): -12.6%

Compound: CC(C)c1cc(O)c(C2=CCN(C)CC2)c(O)c1.Cl [Example VI, 2-(N-Methyl-1,2,3,6-tetrahydro-4-pyridyl)-5-isopropyl resorcinol hydrochloride]
- inhibition in vivo at 6.3 mg/kg (pylorous ligated rats; negative sign means stimulated, read-out: Percent inhibition of pepsin): -13.6%
- inhibition in vivo at 6.3 mg/kg (pylorous ligated rats; read-out: Percent inhibition of acid output): 23.4%
- inhibition in vivo at 6.3 mg/kg (pylorous ligated rats; read-out: Percent inhibition of acidity): 7%
- inhibition in vivo at 6.3 mg/kg (pylorous ligated rats; read-out: Percent inhibition of pepsin output): 7%
- inhibition in vivo at 6.3 mg/kg (pylorous ligated rats; read-out: Percent inhibition of volume): 18.9%
- inhibition in vivo at 12.5 mg/kg (pylorous ligated rats; oral dose 12.5 mg/kg, negative sign means stimulated, read-out: Percent inhibition of pepsin): -25.3%
- inhibition in vivo at 12.5 mg/kg (pylorous ligated rats; [3]): 59.4%
- inhibition in vivo at 12.5 mg/kg (pylorous ligated rats; [4]): 21.6%
- inhibition in vivo at 12.5 mg/kg (pylorous ligated rats; oral dose 12.5 mg/kg, read-out: Percent inhibition of pepsin output): 41.2%
- inhibition in vivo at 12.5 mg/kg (pylorous ligated rats; [5]): 49.8%
- inhibition in vivo at 25 mg/kg (pylorous ligated rats; oral dose 25 mg/kg, negative sign means stimulated, read-out: Percent inhibition of pepsin): -22.3%
- inhibition in vivo at 25 mg/kg (pylorous ligated rats; [6]): 80.9%
- inhibition in vivo at 25 mg/kg (pylorous ligated rats; [7]): 49.9%
- inhibition in vivo at 25 mg/kg (pylorous ligated rats; oral dose 25 mg/kg, read-out: Percent inhibition of pepsin output): 60.2%
- inhibition in vivo at 25 mg/kg (pylorous ligated rats; [8]): 66.1%
- inhibition in vivo at 50 mg/kg (pylorous ligated rats; [9]): -38.6%
- inhibition in vivo at 50 mg/kg (pylorous ligated rats; [10]): 54.7%
- inhibition in vivo at 50 mg/kg (pylorous ligated rats; [11]): 84.4%
- inhibition in vivo at 50 mg/kg (pylorous ligated rats; [12]): 51.7%
- inhibition in vivo at 50 mg/kg (pylorous ligated rats; [13]): 67.3%
- inhibition in vivo at 100 mg/kg (pylorous ligated rats; oral dose 100 mg/kg, negative sign means stimulated, read-out: Percent inhibition of pepsin): -48.8%
- inhibition in vivo at 100 mg/kg (pylorous ligated rats; [14]): 87.7%
- inhibition in vivo at 100 mg/kg (pylorous ligated rats; [15]): 62.1%
- inhibition in vivo at 100 mg/kg (pylorous ligated rats; oral dose 100 mg/kg, read-out: Percent inhibition of pepsin output): 53.3%
- inhibition in vivo at 100 mg/kg (pylorous ligated rats; [16]): 67.5%
- % Inhibition of acid output ([1]; dose 20 mg/kg): 26.6%
- % Inhibition of acidity ([1]; dose 20 mg/kg): 36.6%
- % Inhibition of pepsin ([1]; dose 20 mg/kg): 62.7%
- % Inhibition of pepsin output ([1]; dose 20 mg/kg): 57.1%
- % Inhibition of volume ([1]; dose 20 mg/kg): -17.6%

Compound: CCCCCC(C)C(C)c1cc(O)c(C2=CCN(Cc3ccccc3)CC2)c(O)c1.Cl (stereo not drawn) [Example XIV, 2-(N-Benzyl-1,2,3,6-tetrahydro-4-pyridyl)-5-(1,2-dimethylheptyl) resorcinol hydrochloride]
- inhibition in vivo at 12.5 mg/kg (pylorous ligated rats; [3]): -17.3%
- inhibition in vivo at 12.5 mg/kg (pylorous ligated rats; [4]): -0.5%
- inhibition in vivo at 12.5 mg/kg (pylorous ligated rats; [5]): -5.9%
- inhibition in vivo at 25 mg/kg (pylorous ligated rats; [6]): 12.5%
- inhibition in vivo at 25 mg/kg (pylorous ligated rats; [7]): 9.2%
- inhibition in vivo at 25 mg/kg (pylorous ligated rats; [8]): 4.9%
- inhibition in vivo at 50 mg/kg (pylorous ligated rats; [9]): 12.7%
- inhibition in vivo at 50 mg/kg (pylorous ligated rats; [10]): 52.4%
- inhibition in vivo at 50 mg/kg (pylorous ligated rats; [11]): 57.6%
- inhibition in vivo at 50 mg/kg (pylorous ligated rats; [12]): 24.7%
- inhibition in vivo at 50 mg/kg (pylorous ligated rats; [13]): 48.9%
- inhibition in vivo at 100 mg/kg (pylorous ligated rats; [14]): 79.7%
- inhibition in vivo at 100 mg/kg (pylorous ligated rats; [15]): 31.6%
- inhibition in vivo at 100 mg/kg (pylorous ligated rats; [16]): 72.1%
- % Inhibition of acid output ([1]; dose 10 mg/kg): -10.4%
- % Inhibition of acidity ([1]; dose 10 mg/kg): 1.2%
- % Inhibition of pepsin ([1]; dose 10 mg/kg): -10.0%
- % Inhibition of pepsin output ([1]; dose 10 mg/kg): -23.1%
- % Inhibition of volume ([1]; dose 10 mg/kg): -12.3%

Compound: CCCCCC(C)C(C)c1cc(O)c(C2CCNCC2)c(O)c1 (stereo not drawn) [Example XVI, 2-(4-Piperidino)-5-(1,2-dimethylheptyl) resorcinol hydrochloride]
- inhibition in vivo at 50 mg/kg (pylorous ligated rats; [9]): 45.1%
- inhibition in vivo at 50 mg/kg (pylorous ligated rats; [10]): 40.3%
- inhibition in vivo at 50 mg/kg (pylorous ligated rats; [11]): 46.6%
- inhibition in vivo at 50 mg/kg (pylorous ligated rats; [12]): 50.7%
- inhibition in vivo at 50 mg/kg (pylorous ligated rats; [13]): -8.6%
- % Inhibition of acid output ([1]; dose 10 mg/kg): 20.3%
- % Inhibition of acidity ([1]; dose 10 mg/kg): 20.9%
- % Inhibition of pepsin ([1]; dose 10 mg/kg): 39.7%
- % Inhibition of pepsin output ([1]; dose 10 mg/kg): 39.1%
- % Inhibition of volume ([1]; dose 10 mg/kg): -0.2%

Compound: CCCCCc1cc(O)c(C2CCN(C)CC2)c(O)c1 [XVIII, 2-(N-Methyl-4-piperidino)-5-pentyl resorcinol hydrochloride]
- inhibition in vivo at 50 mg/kg (pylorous ligated rats; [9]): 5.6%
- inhibition in vivo at 50 mg/kg (pylorous ligated rats; [10]): 1.4%
- inhibition in vivo at 50 mg/kg (pylorous ligated rats; [11]): 4.5%
- inhibition in vivo at 50 mg/kg (pylorous ligated rats; [12]): 8.2%
- inhibition in vivo at 50 mg/kg (pylorous ligated rats; [13]): -5.2%

Compound: CCCCCc1cc(O)c(C2CC3CCC(C2)N3C)c(O)c1 (stereo not drawn) [XXIV, 2-(N-Methyl-2,6-ethylidene-4-piperidino)-5-pentyl resorcinol hydrochloride]
- inhibition in vivo at 50 mg/kg (pylorous ligated rats; [9]): 21%
- inhibition in vivo at 50 mg/kg (pylorous ligated rats; [10]): 22.2%
- inhibition in vivo at 50 mg/kg (pylorous ligated rats; [11]): 0.9%
- inhibition in vivo at 50 mg/kg (pylorous ligated rats; [12]): -2.5%
- inhibition in vivo at 50 mg/kg (pylorous ligated rats; [13]): 2.8%
